According to patent publication US9247759B2, “Identification of human T2R receptors that respond to bitter compounds that elicit the bitter taste in compositions, and the use thereof in assays to identify compounds that inhibit (block) bitter taste in compositions and use thereof” (SENOMYX, INC., priority 2007, dated 2016):
pIC50: −log10 of the molar value. Read-outs that look alike come from different tables or passages of the source.

Target: hT2R8 (Homo sapiens (Human), UniProt Q9NYW2)
Experiment: hT2R8 antagonist high-throughput FLIPR assay, stable cell line with G16g44, agonist andrographolide
Assay type: cell-based
In short: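 HEK293 cells stably co-expressing hT2R8 and chimeric G16g44, read on FLIPR. Test compounds added together with andrographolide (200 μM), which drives the receptor to 70–80% of maximal activity; antagonism seen as reduced agonist response.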

[1] = read-out: IC50 on hT2R8 bitter receptor
[2] = table after Example 12-37, read-out: hT2R8 IC50

hT2R8, sequence (Q9NYW2 whole entry): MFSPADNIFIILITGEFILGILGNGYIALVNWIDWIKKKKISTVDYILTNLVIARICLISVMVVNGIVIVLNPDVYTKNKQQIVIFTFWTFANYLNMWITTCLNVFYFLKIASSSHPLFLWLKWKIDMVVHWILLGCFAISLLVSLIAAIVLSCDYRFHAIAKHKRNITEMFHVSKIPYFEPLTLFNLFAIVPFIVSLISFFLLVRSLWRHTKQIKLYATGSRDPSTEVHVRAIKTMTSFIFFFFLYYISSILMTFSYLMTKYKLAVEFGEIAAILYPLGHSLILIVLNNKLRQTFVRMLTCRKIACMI

Structure (SMILES) | pIC50 [1] | pIC50 [2]
Cc1noc(C)c1Cn1cc(N2C(=O)[C@H](C)N(Cc3ccccc3)C2=O)cn1 [Example 12-11, (S)-1-benzyl-3-(1-((3,5-dimethylisoxazol-4-yl)methyl)-1H-pyrazol-4-yl)-5-methylimidazolidine-2,4-dione] | 8.00 | –
COc1ccc(CN2C(=O)N(c3cnn(Cc4c(C)noc4C)c3)C(=O)C23CC3)cc1O [Example 12-12, 6-(1-((3,5-dimethylisoxazol-4-yl)methyl)-1H-pyrazol-4-yl)-4-(3-hydroxy-4-methoxybenzyl)-4,6-diazaspiro[2.4]heptane-5,7-dione] | 7.70 | –
COc1ccc(CN2C(=O)N(c3cnn(Cc4c(C)noc4C)c3)C(=O)C23CC3)cc1OC [Example 12-13, 4-(3,4-dimethoxybenzyl)-6-(1-((3,5-dimethylisoxazol-4-yl)methyl)-1H-pyrazol-4-yl)-4,6-diazaspiro[2.4]heptane-5,7-dione] | 7.70 | –
COCc1cccc(CN2C(=O)N(c3cnn(Cc4c(C)noc4C)c3)C(=O)C23CC3)c1 [Example 12-14, 6-(1-((3,5-dimethylisoxazol-4-yl)methyl)-1H-pyrazol-4-yl)-4-(3-(methoxymethyl)benzyl)-4,6-diazaspiro[2.4]heptane-5,7-dione] | 7.52 | –
Cc1noc(C)c1Cn1cc(N2C(=O)N(Cc3cccc(O)c3)C3(CC3)C2=O)cn1 [Example 12-15, 6-(1-((3,5-dimethylisoxazol-4-yl)methyl)-1H-pyrazol-4-yl)-4-(3-hydroxybenzyl)-4,6-diazaspiro[2.4]heptane-5,7-dione] | 7.70 | –
Cc1noc(C)c1Cn1cc(N2C(=O)NC(C)(C)C2=O)cn1 [Example 12-16a, 3-(1-((3,5-dimethylisoxazol-4-yl)methyl)-1H-pyrazol-4-yl)-5,5-dimethylimidazolidine-2,4-dione] | 5.64 | –
COc1cc(CN2C(=O)N(c3cnn(Cc4c(C)noc4C)c3)C(=O)C2(C)C)cc(OC)c1 [Example 12-18, 1-(3,5-dimethoxybenzyl)-3-(1-((3,5-dimethylisoxazol-4-yl)methyl)-1H-pyrazol-4-yl)-5,5-dimethylimidazolidine-2,4-dione] | 6.52 | –
COc1cc(CN2C(=O)N(c3cnn(Cc4c(C)noc4C)c3)C(=O)C2(C)C)ccc1F [Example 12-20, 3-(1-((3,5-dimethylisoxazol-4-yl)methyl)-1H-pyrazol-4-yl)-1-(4-fluoro-3-methoxybenzyl)-5,5-dimethylimidazolidine-2,4-dione] | 6.74 | –
Cc1noc(C)c1CN1C(=O)N(c2cnn(Cc3c(C)noc3C)c2)C(=O)C1(C)C [Example 12-21, 1-((3,5-dimethylisoxazol-4-yl)methyl)-3-(1-((3,5-dimethylisoxazol-4-yl)methyl)-1H-pyrazol-4-yl)-5,5-dimethylimidazolidine-2,4-dione] | 7.10 | –
Cc1ccccc1CN1C(=O)N(c2cnn(Cc3c(C)noc3C)c2)C(=O)C1(C)C [Example 12-22, 3-(1-((3,5-dimethylisoxazol-4-yl)methyl)-1H-pyrazol-4-yl)-5,5-dimethyl-1-(2-methylbenzyl)imidazolidine-2,4-dione] | 7.00 | –
Cc1noc(C)c1Cn1cc(N2C(=O)N(C(C)c3ccccc3)C(C)(C)C2=O)cn1 (centres unmarked) [Example 12-24, 3-(1-((3,5-dimethylisoxazol-4-yl)methyl)-1H-pyrazol-4-yl)-5,5-dimethyl-1-(1-phenylethyl)imidazolidine-2,4-dione] | 6.82 | –
Cc1noc(C)c1Cn1cc(N2C(=O)N(Cc3cc(C)n(C)n3)C(C)(C)C2=O)cn1 [Example 12-25, 1-((1,5-dimethyl-1H-pyrazol-3-yl)methyl)-3-(1-((3,5-dimethylisoxazol-4-yl)methyl)-1H-pyrazol-4-yl)-5,5-dimethylimidazolidine-2,4-dione] | 6.80 | –
Cc1noc(C)c1Cn1cc(N2C(=O)N(CCOc3ccccc3)C(C)(C)C2=O)cn1 [Example 12-27, 3-(1-((3,5-dimethylisoxazol-4-yl)methyl)-1H-pyrazol-4-yl)-5,5-dimethyl-1-(2-phenoxyethyl)imidazolidine-2,4-dione] | 6.46 | –
COc1ccccc1CN1C(=O)N(c2cnn(Cc3c(C)noc3C)c2)C(=O)C1(C)C [Example 12-31, 3-(1-((3,5-dimethylisoxazol-4-yl)methyl)-1H-pyrazol-4-yl)-1-(2-methoxybenzyl)-5,5-dimethylimidazolidine-2,4-dione] | 7.10 | –
COCc1cccc(CN2C(=O)N(c3cnn(Cc4c(C)noc4C)c3)C(=O)C2(C)C)c1 [Example 12-35, 3-(1-((3,5-dimethylisoxazol-4-yl)methyl)-1H-pyrazol-4-yl)-1-(3-(methoxymethyl)benzyl)-5,5-dimethylimidazolidine-2,4-dione] | 6.89 | –
Cc1noc(C)c1Cn1cc(N2C(=O)N(Cc3cccnc3)C(C)(C)C2=O)cn1 [Example 12-36, 3-(1-((3,5-dimethylisoxazol-4-yl)methyl)-1H-pyrazol-4-yl)-5,5-dimethyl-1-(pyridin-3-ylmethyl)imidazolidine-2,4-dione] | 6.66 | –
Cc1noc(C)c1Cn1cc(N2C(=O)N(Cc3ccc(O)cc3)C(C)(C)C2=O)cn1 [Example 12-38, 3-(1-((3,5-dimethylisoxazol-4-yl)methyl)-1H-pyrazol-4-yl)-1-(4-hydroxybenzyl)-5,5-dimethylimidazolidine-2,4-dione] | – | 7.15
COc1cccc(CN2C(=O)N(c3cnn(Cc4c(C)noc4C)c3)C(=O)C2(C)C)n1 [Example 12-40, 3-(1-((3,5-dimethylisoxazol-4-yl)methyl)-1H-pyrazol-4-yl)-1-((6-methoxypyridin-2-yl)methyl)-5,5-dimethylimidazolidine-2,4-dione] | – | 7.10
Cc1noc(C)c1Cn1cc(N2C(=O)N(Cc3c(F)cccc3F)C(C)(C)C2=O)cn1 [Example 12-44, 1-(2,6-difluorobenzyl)-3-(1-((3,5-dimethylisoxazol-4-yl)methyl)-1H-pyrazol-4-yl)-5,5-dimethylimidazolidine-2,4-dione] | – | 7.00
COc1ccc(CCN2C(=O)N(c3cnn(Cc4c(C)noc4C)c3)C(=O)C2(C)C)cc1OC [Example 12-49, 1-(3,4-dimethoxyphenethyl)-3-(1-((3,5-dimethylisoxazol-4-yl)methyl)-1H-pyrazol-4-yl)-5,5-dimethylimidazolidine-2,4-dione] | – | 6.89

Other lines, results leading:

pIC50 [1] | pIC50 [2] | Structure (SMILES)
7.40 | – | Cc1noc(C)c1Cn1cc(N2C(=O)N(Cc3ccc(C#N)cc3)C(C)(C)C2=O)cn1 [Example 12-16, 4-((3-(1-((3,5-dimethylisoxazol-4-yl)methyl)-1H-pyrazol-4-yl)-5,5-dimethyl-2,4-dioxoimidazolidin-1-yl)methyl)benzonitrile]
8.00 | – | Cc1noc(C)c1Cn1cc(N2C(=O)N(Cc3ccc(F)c(O)c3)C(C)(C)C2=O)cn1 [Example 12-19, 3-(1-((3,5-dimethylisoxazol-4-yl)methyl)-1H-pyrazol-4-yl)-1-(4-fluoro-3-hydroxybenzyl)-5,5-dimethylimidazolidine-2,4-dione]
6.64 | – | Cc1cc(CN2C(=O)N(c3cnn(Cc4c(C)noc4C)c3)C(=O)C2(C)C)n(C)n1 [Example 12-26, 1-((1,3-dimethyl-1H-pyrazol-5-yl)methyl)-3-(1-((3,5-dimethylisoxazol-4-yl)methyl)-1H-pyrazol-4-yl)-5,5-dimethylimidazolidine-2,4-dione]
6.23 | – | COCCN1C(=O)N(c2cnn(Cc3c(C)noc3C)c2)C(=O)C1(C)C [Example 12-28, 3-(1-((3,5-dimethylisoxazol-4-yl)methyl)-1H-pyrazol-4-yl)-1-(2-methoxyethyl)-5,5-dimethylimidazolidine-2,4-dione]
7.10 | – | Cc1noc(C)c1Cn1cc(N2C(=O)N(Cc3ccc(F)cc3)C(C)(C)C2=O)cn1 [Example 12-29, 3-(1-((3,5-dimethylisoxazol-4-yl)methyl)-1H-pyrazol-4-yl)-1-(4-fluorobenzyl)-5,5-dimethylimidazolidine-2,4-dione]
7.10 | – | COc1ccc(CN2C(=O)N(c3cnn(Cc4c(C)noc4C)c3)C(=O)C2(C)C)cc1OC [Example 12-30, 1-(3,4-dimethoxybenzyl)-3-(1-((3,5-dimethylisoxazol-4-yl)methyl)-1H-pyrazol-4-yl)-5,5-dimethylimidazolidine-2,4-dione]
6.96 | – | COc1ccc(CN2C(=O)N(c3cnn(Cc4c(C)noc4C)c3)C(=O)C2(C)C)cc1 [Example 12-33, 3-(1-((3,5-dimethylisoxazol-4-yl)methyl)-1H-pyrazol-4-yl)-1-(4-methoxybenzyl)-5,5-dimethylimidazolidine-2,4-dione]
8.00 | – | Cc1noc(C)c1Cn1cc(N2C(=O)[C@@H](C)N(Cc3ccccc3)C2=O)cn1 [Example 12-37, (R)-1-benzyl-3-(1-((3,5-dimethylisoxazol-4-yl)methyl)-1H-pyrazol-4-yl)-5-methylimidazolidine-2,4-dione]
– | 7.15 | Cc1noc(C)c1Cn1cc(N2C(=O)N(Cc3ccccc3O)C(C)(C)C2=O)cn1 [Example 12-39, 3-(1-((3,5-dimethylisoxazol-4-yl)methyl)-1H-pyrazol-4-yl)-1-(2-hydroxybenzyl)-5,5-dimethylimidazolidine-2,4-dione]
– | 7.05 | Cc1noc(C)c1Cn1cc(N2C(=O)N(Cc3cccc(C#N)c3)C(C)(C)C2=O)cn1 [Example 12-42, 3-((3-(1-((3,5-dimethylisoxazol-4-yl)methyl)-1H-pyrazol-4-yl)-5,5-dimethyl-2,4-dioxoimidazolidin-1-yl)methyl)benzonitrile]
– | 7.00 | Cc1noc(C)c1Cn1cc(N2C(=O)N(Cc3cccc(O)c3O)C(C)(C)C2=O)cn1 [Example 12-43, 1-(2,3-dihydroxybenzyl)-3-(1-((3,5-dimethylisoxazol-4-yl)methyl)-1H-pyrazol-4-yl)-5,5-dimethylimidazolidine-2,4-dione]
– | 6.96 | Cc1noc(C)c1Cn1cc(N2C(=O)N(Cc3ccccc3F)C(C)(C)C2=O)cn1 [Example 12-45, 3-(1-((3,5-dimethylisoxazol-4-yl)methyl)-1H-pyrazol-4-yl)-1-(2-fluorobenzyl)-5,5-dimethylimidazolidine-2,4-dione]
